Laboratory results reported in publication PMC9306968, “A structural homologue of the plant receptor D14 mediates responses to strigolactones in the fungal phytopathogen Cryphonectria parasitica” (The New Phytologist, 2022).

How the values were obtained:
[1] = biological target: T1, RMS3/PsD14 (Lathyrus oleraceus, UniProt A0A109QYD3); experiment: intrinsic tryptophan fluorescence titration (also nanoDSF and UPLC hydrolysis assay); type: binding
T1 sequence (A0A109QYD3 1-267): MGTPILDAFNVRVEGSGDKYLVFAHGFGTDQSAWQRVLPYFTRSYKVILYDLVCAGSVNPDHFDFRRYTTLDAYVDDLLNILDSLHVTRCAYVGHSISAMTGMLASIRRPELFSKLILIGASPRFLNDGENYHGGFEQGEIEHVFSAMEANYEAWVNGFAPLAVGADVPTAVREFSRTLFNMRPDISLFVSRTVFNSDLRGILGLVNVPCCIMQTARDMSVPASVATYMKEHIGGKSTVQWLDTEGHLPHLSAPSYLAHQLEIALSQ

[2] = biological target: CpD14; experiment: intrinsic tryptophan fluorescence titration; UPLC hydrolysis assay; denaturing ESI-MS covalent adduct; type: binding, Cryphonectria parasitica
Source text: intrinsic tryptophan fluorescence titration; UPLC hydrolysis assay; denaturing ESI-MS covalent adduct on CpD14 | The interaction between (+)‐GR24 and CpD14 was confirmed using tryptophan intrinsic fluorescence assay

## CC1=C[C@H](O/C=C2/C(=O)O[C@@H]3c4ccccc4C[C@H]23)OC1=O [(+)-GR24]
[1]
  Kd: 9.33 ± 4.27 µM
[2]
  Kd: 203 ± 41.1 µM
